According to PubChem BioAssay AID248 (DTP/NCI, 2004):
“And” between values parts separate entries of the source, which are not always exact repeats. Identical values can stand only once. Toxic doses and inconclusive results are not listed. Cut-off read from the data, not from the text of the source: active = T/C of 150% or more; inactive = T/C below 125%.

Tested on: L1210 leukemia ip in BDF1 mice, survival T/C
Assay: NCI In Vivo Anticancer Drug Screen. Data for tumor model L1210 Leukemia (intraperitoneal) in B6D2F1 (BDF1) mice
Conditions: endpoint: mean survival time, higher = longer survival
Summary of the method: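 Value reflects the ratio of survival in compound-treated mice to survival in vehicle-treated controls, with both groups carrying the same transplanted tumor.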

[1] = dose: 100.0 mg/kg/injection, schedule: Q01DX009 (ip), vehicle: Klucel (hydroxypropylcellulose) (HPC)
[2] = dose: 100.0 mg/kg/injection, schedule: Q01DX001 (ip), vehicle: other
[3] = dose: 200.0 mg/kg/injection, schedule: Q01DX001 (ip), vehicle: other
[4] = dose: 100.0 mg/kg/injection, schedule: Q04DX003 (ip), vehicle: saline with Tween-80
[5] = dose: 200.0 mg/kg/injection, schedule: Q04DX003 (ip), vehicle: saline with Tween-80
[6] = dose: 100.0 mg/kg/injection, schedule: Q01DX001 (ip), vehicle: carboxymethylcellulose (CMC)
[7] = dose: 200.0 mg/kg/injection, schedule: Q01DX001 (ip), vehicle: carboxymethylcellulose (CMC)
[8] = dose: 400.0 mg/kg/injection, schedule: Q01DX001 (ip), vehicle: carboxymethylcellulose (CMC)
[9] = dose: 400.0 mg/kg/injection, schedule: Q04DX003 (ip), vehicle: saline with Tween-80
[10] = dose: 25.0 mg/kg/injection, schedule: Q01DX009 (ip), vehicle: saline with Tween-80

Measured: T/C

O=[N+]([O-])/C=C/c1c(Cl)cccc1Cl
inactive: dose: 6.25 mg/kg/injection, schedule: Q01DX005 (ip), vehicle: other 108 % of control | dose: 12.5 mg/kg/injection, schedule: Q01DX005 (ip), vehicle: other 106 % of control | dose: 25.0 mg/kg/injection, schedule: Q01DX005 (ip), vehicle: other 93 % of control | dose: 50.0 mg/kg/injection, schedule: Q01DX005 (ip), vehicle: saline with Tween-80 101 % of control | dose: 50.0 mg/kg/injection, schedule: Q01DX009 (ip), vehicle: Klucel (hydroxypropylcellulose) (HPC) 95 % of control | [1] 93 % of control | dose: 100.0 mg/kg/injection, schedule: Q04DX003 (ip), vehicle: Klucel (hydroxypropylcellulose) (HPC) 94 % of control | dose: 200.0 mg/kg/injection, schedule: Q04DX003 (ip), vehicle: Klucel (hydroxypropylcellulose) (HPC) 100 % of control | dose: 400.0 mg/kg/injection, schedule: Q04DX003 (ip), vehicle: Klucel (hydroxypropylcellulose) (HPC) 103 % of control

CSc1n[nH]c(N=[N+]=[N-])n1
inactive: dose: 100.0 mg/kg/injection, schedule: Q04DX002 (ip), vehicle: saline with Tween-80 104 % of control | dose: 200.0 mg/kg/injection, schedule: Q04DX002 (ip), vehicle: saline with Tween-80 115 % of control | dose: 400.0 mg/kg/injection, schedule: Q04DX002 (ip), vehicle: saline with Tween-80 104 % of control

CCC1(C)CCC2(C)C(CCC3C2CCCC3(C)C(=O)O)C1 (configuration not stated)
inactive: dose: 12.5 mg/kg/injection, schedule: Q04DX002 (ip), vehicle: saline with Tween-80 96 % of control | dose: 25.0 mg/kg/injection, schedule: Q04DX002 (ip), vehicle: saline with Tween-80 96 % of control | dose: 50.0 mg/kg/injection, schedule: Q04DX002 (ip), vehicle: saline with Tween-80 89 % of control

CCOC(=O)c1ccc(NC(=O)NCCCCCCNC(=O)Nc2ccc(C(=O)OCC)cc2)cc1
inactive: [1] 90 % of control | dose: 200.0 mg/kg/injection, schedule: Q01DX009 (ip), vehicle: Klucel (hydroxypropylcellulose) (HPC) 100 % of control | dose: 400.0 mg/kg/injection, schedule: Q01DX009 (ip), vehicle: Klucel (hydroxypropylcellulose) (HPC) 100 % of control

NC1=NC=NC(c2ccccc2)N1c1ccccc1F (configuration not stated)
inactive: dose: 25.0 mg/kg/injection, schedule: Q01DX001 (ip), vehicle: saline 101 % of control | dose: 50.0 mg/kg/injection, schedule: Q01DX001 (ip), vehicle: saline 96 % of control | dose: 100.0 mg/kg/injection, schedule: Q01DX001 (ip), vehicle: saline 104 % of control

CC1CN=C(c2ccc(O)cc2O)S1 (configuration not stated)
inactive: dose: 100.0 mg/kg/injection, schedule: Q04DX002 (ip), vehicle: saline 93 % of control | dose: 200.0 mg/kg/injection, schedule: Q04DX002 (ip), vehicle: saline 104 % of control | dose: 400.0 mg/kg/injection, schedule: Q04DX002 (ip), vehicle: saline 96 % of control

CC(C)CC(CC(C)C)OB(OC(CC(C)C)CC(C)C)OC(CC(C)C)CC(C)C
inactive: dose: 50.0 mg/kg/injection, schedule: Q01DX001 (ip), vehicle: other 96 % of control | [2] 96 % of control | [3] 96 % of control | dose: 400.0 mg/kg/injection, schedule: Q01DX001 (ip), vehicle: other 90 % of control

FC(F)(F)S.[Hg]
inactive: dose: 5.0 mg/kg/injection, schedule: Q01DX009 (ip), vehicle: saline 86 % of control | dose: 10.0 mg/kg/injection, schedule: Q01DX009 (ip), vehicle: saline 93 % of control

C/C(=N/OC(=O)N(C)C)c1ccc(Cl)c(Cl)c1
inactive: [2] 96 % of control | [3] 98 % of control

CCCCCCCCP(=O)(CCCC)CCCC
inactive: [4] 96 % of control | [5] 107 % of control

COc1cccc(C2=CCCCC2)c1
inactive: dose: 50.0 mg/kg/injection, schedule: Q01DX001 (ip), vehicle: carboxymethylcellulose (CMC) 96 % of control | [6] 93 % of control | [7] 96 % of control | [8] 98 % of control

OCC1C2CCC(CC2)C1CO (configuration not stated)
inactive: dose: 12.5 mg/kg/injection, schedule: Q01DX009 (ip), vehicle: saline 102 % of control | dose: 12.5 mg/kg/injection, schedule: Q04DX003 (ip), vehicle: saline with Tween-80 97 % of control | dose: 25.0 mg/kg/injection, schedule: Q01DX009 (ip), vehicle: saline 106 % of control | dose: 25.0 mg/kg/injection, schedule: Q04DX003 (ip), vehicle: saline with Tween-80 94 % of control | dose: 50.0 mg/kg/injection, schedule: Q04DX003 (ip), vehicle: saline with Tween-80 102 % of control | [4] 96 % of control | [5] 93 % of control | [9] 102 % of control

O=C(NCCCl)NC1(C(=O)O)CCCC1
inactive: dose: 100.0 mg/kg/injection, schedule: Q01DX001 (ip), vehicle: Klucel (hydroxypropylcellulose) (HPC) 98 % of control | dose: 200.0 mg/kg/injection, schedule: Q01DX001 (ip), vehicle: Klucel (hydroxypropylcellulose) (HPC) 107 % of control | dose: 400.0 mg/kg/injection, schedule: Q01DX001 (ip), vehicle: Klucel (hydroxypropylcellulose) (HPC) 98 % of control

CCc1cc2oc(C)c(C)c2c2nc(C)oc12
inactive: dose: 50.0 mg/kg/injection, schedule: Q04DX002 (ip), vehicle: Klucel (hydroxypropylcellulose) (HPC) 101 % of control | dose: 100.0 mg/kg/injection, schedule: Q04DX002 (ip), vehicle: Klucel (hydroxypropylcellulose) (HPC) 99 % of control and 104 % of control | dose: 200.0 mg/kg/injection, schedule: Q04DX002 (ip), vehicle: Klucel (hydroxypropylcellulose) (HPC) 101 % of control | dose: 400.0 mg/kg/injection, schedule: Q04DX002 (ip), vehicle: Klucel (hydroxypropylcellulose) (HPC) 96 % of control

CCC(=O)O[C@H]1CC[C@H]2[C@@H]3[C@H](C)CC4=CC(=O)CC[C@]4(C)[C@H]3CC[C@]12C
inactive: [6] 97 % of control | [7] 94 % of control | [8] 90 % of control

NOCc1csc(Nc2ccccc2)n1
inactive: dose: 100.0 mg/kg/injection, schedule: Q04DX003 (ip), vehicle: saline 100 % of control | dose: 200.0 mg/kg/injection, schedule: Q04DX003 (ip), vehicle: saline 88 % of control

C=C(C)CSC#N
inactive: [10] 101 % of control | dose: 50.0 mg/kg/injection, schedule: Q01DX009 (ip), vehicle: saline with Tween-80 96 % of control | dose: 100.0 mg/kg/injection, schedule: Q01DX009 (ip), vehicle: saline with Tween-80 101 % of control

Cc1ccc(C(=O)Oc2ccc(N=C=S)cc2)cc1
inactive: dose: 75.0 mg/kg/injection, schedule: Q01DX001 (ip), vehicle: carboxymethylcellulose (CMC) 88 % of control | dose: 150.0 mg/kg/injection, schedule: Q01DX001 (ip), vehicle: carboxymethylcellulose (CMC) 90 % of control | dose: 300.0 mg/kg/injection, schedule: Q01DX001 (ip), vehicle: carboxymethylcellulose (CMC) 87 % of control

Cc1csc(C)n1.Cc1csc(C)n1.Cc1csc(C)n1.Cc1csc(C)n1.[Cl][Rh][Cl]
inactive: dose: 3.13 mg/kg/injection, schedule: Q04DX003 (ip), vehicle: distilled water + Tween-80 105 % of control | dose: 6.25 mg/kg/injection, schedule: Q04DX003 (ip), vehicle: distilled water + Tween-80 102 % of control | dose: 12.5 mg/kg/injection, schedule: Q04DX003 (ip), vehicle: distilled water + Tween-80 100 % of control | dose: 25.0 mg/kg/injection, schedule: Q04DX003 (ip), vehicle: distilled water + Tween-80 110 % of control

S=c1cccc[nH]1.[Pb]
inactive: dose: 100.0 mg/kg/injection, schedule: Q04DX002 (ip), vehicle: gum acacia 103 % of control | dose: 200.0 mg/kg/injection, schedule: Q04DX002 (ip), vehicle: gum acacia 100 % of control

CCCC(C)C(=O)Nc1cccc(OC(=O)N(C)C)c1 (configuration not stated)
inactive: [4] 95 % of control | [5] 96 % of control | [9] 93 % of control

N#C/C(=C\c1ccco1)c1ccc([N+](=O)[O-])cc1
inactive: dose: 6.25 mg/kg/injection, schedule: Q01DX009 (ip), vehicle: saline with Tween-80 90 % of control | dose: 12.5 mg/kg/injection, schedule: Q01DX009 (ip), vehicle: saline with Tween-80 90 % of control | [10] 95 % of control

C=CCC1(/C(=C\CC)CCC)C(=O)NC(=O)NC1=O
inactive: dose: 75.0 mg/kg/injection, schedule: Q01DX001 (ip), vehicle: saline 96 % of control
